Source: patent US7115666B2, “Nitrone compounds, pharmaceutical compositions containing the same and methods for treating inflammation and neuropathic pain” (Renovis, Inc., priority 2002, dated 2006)
Entries after “also recorded” stand apart in the source; their conditions may differ.

Columns and labels:
[1] = test system: adjuvant-induced footpad edema in rats; assay: Adjuvant assay (adjuvant-induced footpad edema); format: in vivo, rat
Method: This assay is a model for chronic inflammation. See, for example, B. M. Weichman, “Rat Adjuvant Arthritis: A Model of Chronic Inflammation,” Pharmacological Methods in the Control of Inflammation, 363–380 (1989) and references cited therein.
In this assay, Male Lewis rats weighing between 180–220 g were lightly anesthetized with an ip injection of 30 mg/kg of sodium pentobarbital (50 mg/ml). Desiccated Mycobacterium butyrium (Difco, 20 mg/ml) suspended in mineral oil was injected (50 μL) at both sides of the base of the tail under the skin. A line was tattooed on both rear paws at 5 mm above the angle of the ankle. The paw volumes, under the line, were measured by volume displacement using a plethysmometer (Ugo Basile) at the day of adjuvant injection (day 0) and on day 14. On day 14, animals with paw volumes equal to the mean of paw volumes ±SD were randomized into treatment groups. Rats which fell outside ±1 SD were not used in the experiment. One group received vehicle (1% methyl cellulose) by the po route and the other group received indomethacin (3 mg/kg suspended in 1% methyl cellulose). Dosing began on day 14, and continued until final assessment on day 21 post-adjuvant injection. […] This group has a slightly positive volume increase when paw volumes on day 21 are subtracted from day 0 values due to growth of the rat. […]

[2] = test system: Taxol-induced neuropathic pain model in mice; assay: Taxol-induced neuropathic pain model, mechanical allodynia (von Frey filament); format: in vivo
From the text: Taxol is a chemotherapeutic reagent for treatment of cancer patients. Cancer patients under Taxol chemotherapy can develop neuropathic pain, with a symptom of severe mechanical allodynia, so that a light touch (non-noxious stimulus in a normal condition) becomes painful. […] Recent studies have shown that Taxol is involved in TNF-alpha release in microglia cells. As one of the clinically relevant models, Taxol-induced neuropathic pain was developed in mice and rats. It is believed that small-diameter high threshold nociceptive C-fibers in the peripheral sensory nervous systems are largely, if not exclusively, affected in the Taxol-induced neuropathic pain models.
In this series of experiments, five-week old, male C57B1/6 mice were purchased from Charles River and housed at the Renovis animal facility in South San Francisco. Mice were trained for one week in an enclosure made of Plexiglas with dimensions of 2 in×2.5 in×3.5 in (W, H, and L) with a meshed metal support. The baseline of response to mechanical stimulus was measured using a von Frey Filament (0.6 g=3.84 mN). Normally, the baseline response is between 0 to 40%.
Taxol was dissolved (1 mg/ml) in 50% Cremophor EL and 50% alcohol, and freshly diluted with saline to the final concentration of 0.2 mg/ml in 10% Cremophor EL, 10% alcohol. Mice were administered Taxol at 1 mg/kg of body weight, via i.p. daily, while the animals of the control group received vehicle (10% Cremophor EL and 10% alcohol in saline).
Animals receiving this daily dose of Taxol will develop neuropathic pain. The mechanical allodynia was measured at day 7, 8, or 14 after Taxol administration.
A quantity of 200 mg of compound 14 (Example 14) was dissolved in 0.4 ml of 100% DMSO to yield a concentration of 500 mg/ml, and was kept at 4° C. until use. Methylcellulose was dissolved in deionized-distilled water to yield a concentration of 1%. The freshly prepared meythlcellulose was used to make a suspension of the compound, 10 mg of compound in 2.5% DMSO (V/V) and 1% methylcellulose. The suspension was sonicated for 6 min with a 5 second interval every 30 seconds before administration to animals.
A quantity of 50 mg/kg (body weight) compound or vehicle (2.5% DMSO and 1% methylcellulose), 100 μl/20 g (body weight) was given to animals via gavage feeding procedure in a randomized, blinded fashion. The animals were then placed in the enclosure for assay. Mechanical allodynia was measured with von Frey filament (0.6 g=[…]) at various times after administration.
Referring to FIG. 5, baseline in the group of animals was measured as 25+/−4% (n=24, ±SEM) before induction of neuropathic pain with Taxol (or sham treatment), where the response was measured with a von Frey filament (0.6 g=3.84 mN) as the percent of trials a withdrawal response is observed after probing with the filament. The higher the percentage, the greater the inferred pain.
Sixteen animals were treated with Taxol daily to induce neuropathic pain. Mechanical allodynia was assayed at day 8; average withdrawal response was measured as 81±5% (n=16, ±SEM). Sixteen animals were treated with matching vehicle to create sham animals. The Taxol and sham animals were then separated randomly into two groups of 8 animals each for drug vs. vehicle testing. Withdrawal responses to a von Frey filament probe were measured at 1, 6, 24, and 72 hours post-administration of drug or vehicle control, and averaged for each animal. […] Negative values reflect a reduction in inferred pain.
For mouse neuropathic pain studies, C57B1/6 strain, five-weeks old male mice were obtained from Charles River, San Diego, Calif. A total of 120 mice were used for the studies. 4 mice per cage were housed under standard conditions with 12-hour light and 12-hour dark cycles (in Renovis, Inc, South San Francisco facility). For rat neuropathic pain studies, male Sprague-Dawley rats, with body weights ranging from 180–200 grams, were obtained from Harlan. A total of 42 rats were used for this study. […]

[3] = test system: collagen footpad edema in rats; assay: Collagen arthritis assay; format: in vivo, rat; details: for paw volume differences after treatment: FIG. 3; for activity in rat collagen model: dose not stated (Assay Results summary)
Method: This assay is commonly used to screen and evaluate anti-inflammatory drug candidates. See, for example, Larsson et al., Arthritis & Rheumatism, 33:693–701, 1990 and references cited therein.
For these experiments, Female DA rats (7–8 weeks of age) were immunized with Type II collagen derived from bovine nasal septum as described in Cremer et al., J. of Immunology, 149:1045–1053, 1992. The collagen was dissolved and administered with incomplete Freund's adjuvant. Standard precautions were taken to avoid denaturing the collagen before its administration such as keeping the solution cold during preparation. Rats were immunized in the base of the tail on day 0. Dosing began on day 10 with rat paws weighed and volumes taken on day 21. The arthritis was evaluated by comparing paw weights and/or paw volumes at day 21. Compounds reducing paw weight or paw volumes by at least about 30% compared to the controls were also considered effective in this assay.

[4] = test system: chronic constriction injury (CCI) rat model of peripheral neuropathy; assay: Cold allodynia assay in chronic constriction injury (CCI) rats; format: in vivo
Method: The purpose of the following studies was to determine whether test compounds had analgesic activity in a chronic constriction injury (CCI) rat model of peripheral neuropathy. Neuropathic rats were treated with PBN, and other test compounds or 2.5% DMSO in 1.0% MC as a vehicle and tested in a cold allodynia assay to evaluate nociceptive responses.
One week prior to the cold allodynia assay, CCI rats were prepared as follows. Male Sprague Dawley rats (158–224 g) had their right sciatic nerve loosely ligated under aseptic conditions. To observe the cold allodynia response, their paw withdrawal latency response was determined by placing rats in a cold water bath (2–4° C., 2.5 cm deep). […] Rats rendered neuropathic in the right limb display an exaggerated withdrawal response on the neuropathic side (right rear limb). For the cold allodynia assay, two pre-dose latency times to cold were recorded. The end point was an exaggerated removal of the paw from the water. […] The remaining rats were divided into treatment groups. Two separate latency times were obtained for each rat before the dose of each drug. In the first study shown in FIG. 1, rats were then dosed with Compound 1 (30 mg/kg, po) or PBN (100 mg/kg, po) as a suspension in Veh, or Veh alone (1 ml/kg, po). In the second study shown as FIG. 2, three different doses of Compound 1 (10, 30, 100 mg/kg, po) were administered to CCI rats. In both studies, latency to withdraw the ligated leg up above water level was recorded using an electronic timer. The tester was blinded to the animal's treatment group at the time of testing.
Maximum time of latency in any trial was 20 sec. Statistical significance was assessed for paired groups (pre-dose vs. post-dose) using a Wilcoxon test and between non-paired groups using a Kruskal-Wallis with a Dunn's test post-hoc. A probability value of p<0.05 was identified as statistically significant.

[5] = Taxol/mice, P.O., Single dosing, 50 Mg/Kg body weight
[6] = FIG. 2, 30 mg/kg, p.o., 90 min post-dose
[7] = FIG. 2, 100 mg/kg, p.o., 90 min post-dose
[8] = dose not stated (Assay Results summary)

## COc1ccc2c(c1)c(CC(=O)O)c(C)n2C(=O)c1ccc(Cl)cc1 [Indomethacin]
[1]; 3 mg/kg, po, dosing day 14 to day 21 post-adjuvant
  paw volume as compared to vehicle controls: significantly reduced paw volume

## CC(C)(C)[N+]([O-])=CCCc1ccc(NS(=O)(=O)c2ccccc2)cc1 [Compound 10, N-tert-butyl-C-[2-(4-benzenesulfonamidophenyl)ethyl]nitrone]
other
  melting point: 160 °C

## COc1ccc(CCC=[N+]([O-])C(C)(C)C)cc1 [Compound 4, N-tert-butyl-C-[2-(4-methoxyphenyl)ethyl]nitrone]
[2]; [5]
  Effective time Hour post dosing: None via p.o.

## CCOc1ccc(CCC=[N+]([O-])C(C)(C)C)cc1 [Compound 7, N-tert-butyl-C-[2-(4-ethoxyphenyl)ethyl]nitrone]
other
  melting point: 54 to 57 °C
[2]; [5]
  Effective time Hour post dosing: None via p.o.

## CC(C)Oc1ccc(CCC=[N+]([O-])C(C)(C)C)cc1 [Compound 6, N-tert-butyl-C-[2-(4-isopropoxyphenyl)ethyl]nitrone]
[2]; [5]
  Effective time Hour post dosing: None via p.o.

## CC(C)(C)c1cc(CCC=[N+]([O-])C(C)(C)C)cc(C(C)(C)C)c1O [Compound 21]
[2]; [5]
  Effective time Hour post dosing: None via p.o.

## [O-][N+](=CCCc1ccccc1)C1CCCCC1 [Compound 18, N-Cyclohexyl-C-(2-phenylethyl)nitrone]
other
  melting point: 97.2 °C

## CC(C)(C)[N+]([O-])=CCCc1ccccc1 [Compound 1, N-tert-butyl-C-(2-phenylethyl)nitrone]
[2]; 50 mg/kg single dose via oral gavage
  time postdosing of analgesic effect: 1 h
[2]; 50 mg/kg single dose via oral gavage, von Frey filament 0.6 g, measured 1, 6, 24, up to 48 or 72 hours postdosing
  effect on mechanical allodynia (Taxol-induced pain): analgesic effect
[2]; [5]
  Effective time Hour post dosing: ~1 h
  extent of block of mechanical allodynia: partial
[3]; dose not stated
  paw volume differences after treatment: unexpected activity
[3]; FIG. 4, lowering indicates relief from pain
  total gait scores as an index of pain: significant activity; also recorded: activity as an analgesic
[3]
  activity in rat collagen model: significantly active
[4]; 10 mg/kg, po
  activity in a model of painful peripheral neuropathy: significantly active
[4]; FIG. 1, 30 mg/kg, p.o., 90 min post-dose, Kruskal-Wallis, Dunn's test
  post-dose latency score vs. vehicle: signficant post-dose latency score over vehicle
[4]; FIG. 1, 30 mg/kg, p.o., 90 min post-dose, Wilcoxon test
  latency to cold stimulus, post-dose vs. pre-dose score: Significantly higher latency scores
[4]; FIG. 2, 10 mg/kg, p.o., 90 min post-dose
  latency time, post-dose vs. pre-dose score: significantly increased latency time
[4]; [6]
  latency time, post-dose vs. pre-dose score: significantly increased latency time
  post-dose latency score vs. vehicle: significant post-dose latency score over vehicle
[4]; [7]
  latency time, post-dose vs. pre-dose score: significantly increased latency time
  post-dose latency score vs. vehicle: significant post-dose latency score over vehicle

## CC(C)(C)[N+]([O-])=Cc1ccccc1 [PBN, N-tert-butyl phenyl nitrone, reference compound]
[1]; [8]
  activity in the adjuvant assay: completely inactive
[3]; 100 mg/kg
  paw volume differences after treatment: inactive
[3]
  activity in rat collagen model: completely inactive
[4]; FIG. 1, 100 mg/kg, p.o., 90 min post-dose
  activity in cold allodynia assay: completely inactive
[4]; [8]
  activity in the analgesic assay: completely inactive

## CCC(C=[N+]([O-])C(C)(C)C)c1ccc(C(C)(C)C)cc1 (stereo not drawn) [Compound 15, N-tert-butyl-C-[1-(4-tert-butylphenyl)propyl]nitrone]
[2]; [5]
  Effective time Hour post dosing: None via p.o.

## COc1ccc(CC(C)C=[N+]([O-])C(C)(C)C)cc1 (stereo not drawn) [Compound 16, N-tert-butyl-C-[1–2-(4-methoxyphenyl)methylethyl]nitrone]
[2]; [5]
  Effective time Hour post dosing: None via p.o.
